Test results: patent publication US7026334B1, “Thiazolidine compounds and pharmaceutical compositions exhibiting thrombopoietin receptor agonism” (Shionogi & Co., Ltd., priority 1999, dated 2006)

test system: BaF-BO3 cells; test: Growth of the parental cell line BaF-BO3 not expressing TPOR; format: cell-based; conditions: FIG. 3

Molecule	proliferation of parental BaF cells bearing no TPOR
TPO: Thrombopoietin, polypeptide cytokine composed of 332 amino acids; Human TPO (hTPO) purchased from R&D Systems	dose not have any ability to support proliferation

target: T1, human TPO receptor (hTPOR) (Homo sapiens, UniProt P40238); test: Proliferation of TPO dependent BaF/hTPOR cells (thrombopoietic activity, WST-1); format: cell-based; conditions: 20 hours + 4 hours WST-1, absorbance at 450 nm, ED50 = half concentration of the concentration showing the maximum thrombopoietic activity
T1 construct: expressed in transfected cells; host or cells: BaF-BO3 (murine IL-3 dependent pro-B cell line), giving BaF/hTPOR
T1 sequence (P40238 26-635): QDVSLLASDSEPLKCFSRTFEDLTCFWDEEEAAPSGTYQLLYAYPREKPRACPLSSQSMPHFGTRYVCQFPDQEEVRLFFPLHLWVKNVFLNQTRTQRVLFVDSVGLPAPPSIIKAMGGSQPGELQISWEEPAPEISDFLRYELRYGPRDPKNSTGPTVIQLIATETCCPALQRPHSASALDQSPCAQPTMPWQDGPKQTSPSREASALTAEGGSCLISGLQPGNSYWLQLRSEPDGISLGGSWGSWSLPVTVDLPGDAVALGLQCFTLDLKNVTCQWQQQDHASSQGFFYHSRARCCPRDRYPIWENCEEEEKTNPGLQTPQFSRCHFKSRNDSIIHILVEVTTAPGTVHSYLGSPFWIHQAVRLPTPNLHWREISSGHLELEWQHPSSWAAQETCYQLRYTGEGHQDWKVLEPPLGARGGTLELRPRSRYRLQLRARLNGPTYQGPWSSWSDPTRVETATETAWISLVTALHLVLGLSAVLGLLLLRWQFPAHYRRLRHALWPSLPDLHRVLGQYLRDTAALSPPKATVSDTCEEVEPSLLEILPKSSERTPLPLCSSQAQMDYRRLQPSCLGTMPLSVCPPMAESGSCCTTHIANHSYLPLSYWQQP
From the text: The TPO dependent BaF/hTPOR cell line which was established by introducing human TPO receptor (hTPOR) into BaF-BO3 cells according to Collins et al (J. Cell. Physiol., 137:293-298 (1988)) was used to test the thrombopoietic activity of the present compound (B-17). The DNA sequences and encoded peptide sequences for human hTPOR have been described by Vigon et al (Proc. Natl. Acad. Sci. USA, 89:5640-5644 (1992)). […] BAF/hTPOR cells were maintained in RPMI medium and WEHI-3B conditioned medium as a source of murine interleukin-3 (IL-3). These cells were washed and resuspended in RPMI medium without a source of murine IL-3 and seeded into each well of 96-well microtiter plates at a density of […] cells per well in the absence or presence of various concentration of hTPO or the present compound. After incubation at 37° C. for 20 hours in the 5% CO2 incubator, 10% WST-1 reagent (Takara Biomedicals, Japan) was added to each wells and the cells were further incubated for 4 hours. Table 24 exemplifies the ED50 for tested compounds of the present invention, wherein the ED50 is the half concentration of the concentration showing the maximum thrombopoietic activity

EC50	Molecule
71 nM	O=C1NC(=O)C(=Cc2ccc(C(=O)Nc3nc(-c4ccccc4)cs3)cc2)S1 [Compound B-1]
17 nM	O=C1NC(=S)SC1=Cc1ccc(C(=O)Nc2nc(-c3ccc(F)cc3)cs2)cc1 [Compound A-3]
27 nM	Cc1sc(NC(=O)c2ccc(/C=C3\SC(=S)NC3=O)cc2)nc1-c1ccc(Cl)cc1 [Compound A-37]
23 nM	O=C1NC(=O)/C(=C/c2ccc(C(=O)Nc3nc(-c4ccc(Cl)s4)cs3)cc2)S1 [Compound B-14]
58 nM	O=C1NC(=S)SC1=Cc1ccc(C(=O)Nc2nc(-c3ccccc3)cs2)cc1 [Compound A-2]
47 nM	O=C1NC(=S)S/C1=C\c1ccc(C(=O)Nc2nc(-c3cccc(F)c3)cs2)cc1 [Compound A-64]
26 nM	O=C1NC(=S)S/C1=C\c1ccc(C(=O)Nc2nc3c(s2)CCCc2ccccc2-3)cc1 [Compound A-50]
45 nM	Cc1ccc(-c2csc(NC(=O)c3ccc(C=C4SC(=S)NC4=O)cc3)n2)cc1 [Compound A-6]
47 nM	Cc1ccc(-c2csc(NC(=O)c3ccc(C=C4SC(=O)NC4=O)cc3)n2)cc1 [Compound B-5]
15 nM	O=C1NC(=S)S/C1=C\c1ccc(C(=O)Nc2nc(-c3ccc([N+](=O)[O-])cc3)cs2)cc1 [Compound A-14]
41 nM	O=C1NC(=S)S/C1=C\c1ccc(C(=O)Nc2nc(-c3ccc(Br)s3)cs2)cc1 [Compound A-21]
84 nM	O=C1NC(=S)S/C1=C\c1ccc(C(=O)Nc2nc3c(s2)CSc2ccccc2-3)cc1 [Compound A-59]
73 nM	O=C1NC(=S)S/C1=C\c1ccc(C(=O)Nc2nc(-c3ccc(F)cc3)c(CCCl)s2)cc1 [Compound A-43]
47 nM	CCc1sc(NC(=O)c2ccc(/C=C3\SC(=S)NC3=O)cc2)nc1-c1ccccc1 [Compound A-38]
29 nM	O=C1NC(=S)S/C1=C\c1ccc(C(=O)Nc2nc(-c3ccc(F)c(F)c3)cs2)cc1 [Compound A-20]
50 nM	O=C1NC(=S)S/C1=C\c1ccc(C(=O)Nc2nc(-c3ccccc3F)cs2)cc1 [Compound A-67]
11 nM	COC(=O)c1ccc(-c2csc(NC(=O)c3ccc(/C=C4\SC(=S)NC4=O)cc3)n2)cc1 [Compound A-12]
60 nM	O=C1NC(=S)SC1=Cc1ccc(C(=O)Nc2nc(-c3ccc(-c4ccccc4)cc3)cs2)cc1 [Compound A-7]
35 nM	O=C1NC(=S)S/C1=C\c1ccc(C(=O)Nc2nc(-c3cccc(Br)c3)cs2)cc1 [Compound A-72]
20 nM	O=C1NC(=S)S/C1=C\c1ccc(C(=O)Nc2nc(-c3ccc(F)cc3F)cs2)cc1 [Compound A-70]
68 nM	O=C1NC(=O)C(=Cc2ccc(C(=O)Nc3nc(-c4ccc(Cl)c(Cl)c4)cs3)cc2)O1 [Compound C-1]
96 nM	Cc1cc(Br)sc1-c1csc(NC(=O)c2ccc(/C=C3\SC(=S)NC3=O)cc2)n1 [Compound A-56]
36 nM	O=C1NC(=S)SC1=Cc1ccc(C(=O)Nc2nc(-c3ccc(Br)cc3)cs2)cc1 [Compound A-4]
37 nM	O=C1NC(=O)C(=Cc2ccc(C(=O)Nc3nc(-c4ccc(Cl)cc4)cs3)cc2)S1 [Compound B-4]

EC50	Molecule
70 nM	O=C1NC(=S)S/C1=C\c1ccc(C(=O)Nc2nc(-c3ccc(I)cc3)cs2)cc1 [Compound A-73]
84 nM	O=C1NC(=O)/C(=C/c2ccc(C(=O)Nc3nc4c(s3)CCc3ccccc3-4)cc2)S1 [Compound B-21]
23 nM	O=C1NC(=S)S/C1=C\c1ccc(C(=O)Nc2nc(-c3cccc(C(F)(F)F)c3)cs2)cc1 [Compound A-53]
77 nM	O=C1NC(=O)/C(=C/c2ccc(C(=O)Nc3nc(-c4cccs4)cs3)cc2)S1 [Compound B-15]
77 nM	CCOC(=O)c1sc(NC(=O)c2ccc(/C=C3\SC(=S)NC3=O)cc2)nc1-c1ccccc1 [Compound A-32]
11 nM	O=C1NC(=O)C(=Cc2ccc(C(=O)Nc3nc(-c4ccc(F)cc4)cs3)cc2)S1 [Compound B-2]
35 nM	O=C1NC(=S)S/C1=C\c1ccc(C(=O)Nc2nc3c(s2)CCc2ccccc2-3)cc1 [Compound A-49]
72 nM	CCCCOC(=O)c1ccc(-c2csc(NC(=O)c3ccc(/C=C4\SC(=S)NC4=O)cc3)n2)cc1 [Compound A-26]
49 nM	O=C1NC(=S)S/C1=C\c1ccc(C(=O)Nc2nc(-c3cccs3)cs2)cc1 [Compound A-16]
20 nM	O=C1NC(=O)/C(=C/c2ccc(C(=O)Nc3nc(-c4ccc(Cl)c(Cl)c4)cs3)cc2)S1 [Compound B-16]
99 nM	CC(C)OC(=O)c1ccc(-c2csc(NC(=O)c3ccc(/C=C4\SC(=S)NC4=O)cc3)n2)cc1 [Compound A-25]
26 nM	O=C1NC(=S)S/C1=C\c1ccc(C(=O)Nc2nc(-c3ccc(Cl)s3)cs2)cc1 [Compound A-15]
31 nM	CC(C)(C)c1ccc(-c2csc(NC(=O)c3ccc(/C=C4\SC(=S)NC4=O)cc3)n2)cc1 [Compound A-11]
16 nM	O=C1NC(=S)S/C1=C\c1ccc(C(=O)Nc2nc(-c3cccc(OC(F)(F)F)c3)cs2)cc1 [Compound A-63]
72 nM	COC(=O)c1sc(NC(=O)c2ccc(/C=C3\SC(=S)NC3=O)cc2)nc1-c1ccc(F)cc1 [Compound A-42]
69 nM	O=C1NC(=S)S/C1=C\c1ccc(C(=O)Nc2nc(-c3ccc(C(F)(F)F)cc3)cs2)cc1 [Compound A-61]
22 nM	O=C1NC(=S)SC1=Cc1ccc(C(=O)Nc2nc(-c3ccc(Cl)cc3)cs2)cc1 [Compound A-5]
80 nM	O=C1NC(=S)S/C1=C\c1ccc(C(=O)Nc2nc(-c3cc(F)c(F)cc3F)cs2)cc1 [Compound A-71]
16 nM	O=C1NC(=O)/C(=C/c2ccc(C(=O)Nc3nc(-c4ccc(F)c(F)c4)cs3)cc2)S1 [Compound B-18]
72 nM	O=C1NC(=O)C(=Cc2ccc(C(=O)Nc3nc(-c4ccc(-c5ccccc5)cc4)cs3)cc2)S1 [Compound B-6]
62 nM	O=C1NC(=O)C(=Cc2ccc(C(=O)Nc3nc(-c4ccc(Cl)c(Cl)c4)cs3)s2)S1 [Compound E-2]
47 nM	O=C1NC(=O)C(=Cc2ccc(C(=O)Nc3nc(-c4ccc(Br)cc4)cs3)cc2)S1 [Compound B-3]
12 nM	O=C1NC(=S)S/C1=C\c1ccc(C(=O)Nc2nc(-c3ccc(Cl)c(Cl)c3)cs2)cc1 [Compound A-1]
